Here are results for one molecule from the NIST ThermoML archive (doi:10.1016/j.jct.2013.09.030).

± gives the expanded uncertainty stated by the source.

The data set can be described thus: cn = amount concentration of the nth substance listed, in mol/dm3. Particulars: 303.15 K; 101 kPa; Liquid; 4510 conductivity meter (Jenway, UK); c1 = 0.0005258.

Turning to `CC1=C(C(=O)O)N2C(=O)[C@@H](NC(=O)[C@H](N)C3=CCC=CC3)[C@H]2SC1` [Cefradin] + O, the electrical conductivity is 0.000611 ± 0.0002 S/m.
